The source of these data is patent US20230265151A1, “GIP/GLP1 CO-AGONIST COMPOUNDS” (priority 2020, published 2023).

Where two headings read alike, the source gives them in different places. *1 amine or outer side, *2 acyl side, *3 side chain or, on linkers, in order; H or OH if unused. Where a SMILES comes first, the peptide text is derived from it. Side-chain parts run from the residue outwards. [ ]: non-standard residue; d: D form. The star is where a group is joined. αMePhe(2-F) = C[C@](N)(Cc1ccccc1F)C(=O)O; γGlu = O=C(O)[C@H](CCC(=O)[*:2])N[*:1]; C14 diacid = O=C(O)CCCCCCCCCCCCC(=O)*; αMeY = C[C@](N)(Cc1ccc(O)cc1)C(=O)O; αMeL = CC(C)C[C@](C)(N)C(=O)O; Orn = NCCC[C@H](N)C(=O)O; AEEA = NCCOCCOCC(=O)O; Aib = CC(C)(N)C(=O)O Where only a bound is given, the exact number is not on record here.

Common to all, as to format: cell-based
One test deals with T1, hGIPR (Homo sapiens, UniProt P48546).
T1 construct: expressed in transfected cells
T1 sequence (P48546 22-466): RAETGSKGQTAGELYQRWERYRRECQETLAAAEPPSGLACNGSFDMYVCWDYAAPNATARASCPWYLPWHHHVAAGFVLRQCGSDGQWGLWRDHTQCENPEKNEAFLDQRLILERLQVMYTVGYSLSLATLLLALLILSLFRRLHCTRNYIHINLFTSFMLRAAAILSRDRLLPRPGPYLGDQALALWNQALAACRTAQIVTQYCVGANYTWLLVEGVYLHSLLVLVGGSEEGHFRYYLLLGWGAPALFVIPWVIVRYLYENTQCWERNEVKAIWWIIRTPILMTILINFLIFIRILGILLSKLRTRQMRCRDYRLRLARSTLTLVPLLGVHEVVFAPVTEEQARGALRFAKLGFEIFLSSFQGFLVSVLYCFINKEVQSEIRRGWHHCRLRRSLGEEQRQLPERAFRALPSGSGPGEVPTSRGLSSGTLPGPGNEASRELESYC
In words: Functional cAMP formation (HTRF) in HEK-293 clonal cells expressing hGIPR, 0.1% bovine casein, without or with 1.0% human serum albumin. The following applies: for EC50: geometric mean. In a few lines:
(§1)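 Cells were stimulated with peptide for 30 min at 37° C, then intracellular cAMP was measured by competitive HTRF (665/620 nm ratio) and converted to nM using a cAMP standard curve. Relative EC50 and Emax came from four-parameter logistic fits of percent maximal response against peptide concentration.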
For orientation: Changes in cAMP serve as a functional read-out for many G protein-coupled receptors.

For the next test, the target named is hGLP-1R (Homo sapiens, UniProt P43220). As to the kind of experiment: Functional cAMP formation (HTRF) in HEK-293 clonal cells expressing hGLP-1R, 0.1% bovine casein, without or with 1.0% human serum albumin. More on the design: expressed in transfected cells. The following applies: for Emax: percent of maximal response to GLP-1(7-36)NH2. In a few lines: as §1

Another test has as its target T2, hGCGR (Homo sapiens, UniProt P47871).
T2 construct: expressed in transfected cells
In words: Functional cAMP formation (HTRF) in HEK-293 clonal cells expressing hGCGR, 0.1% bovine casein, without or with 1.0% human serum albumin. In a few lines:
as §1

T2 sequence (P47871 26-477): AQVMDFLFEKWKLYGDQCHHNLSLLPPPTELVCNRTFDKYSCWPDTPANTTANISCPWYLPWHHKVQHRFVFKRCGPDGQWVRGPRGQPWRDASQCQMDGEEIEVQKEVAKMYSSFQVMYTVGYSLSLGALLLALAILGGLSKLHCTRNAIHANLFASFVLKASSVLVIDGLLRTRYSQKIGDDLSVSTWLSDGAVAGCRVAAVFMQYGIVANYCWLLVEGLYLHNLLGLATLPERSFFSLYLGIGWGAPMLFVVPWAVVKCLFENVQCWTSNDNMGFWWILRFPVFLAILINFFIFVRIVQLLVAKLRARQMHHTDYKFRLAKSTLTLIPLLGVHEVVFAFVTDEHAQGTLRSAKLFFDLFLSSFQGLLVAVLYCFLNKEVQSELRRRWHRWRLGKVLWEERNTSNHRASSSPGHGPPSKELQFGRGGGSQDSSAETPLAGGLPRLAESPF
Sequence of hGLP-1R (P43220 24-463): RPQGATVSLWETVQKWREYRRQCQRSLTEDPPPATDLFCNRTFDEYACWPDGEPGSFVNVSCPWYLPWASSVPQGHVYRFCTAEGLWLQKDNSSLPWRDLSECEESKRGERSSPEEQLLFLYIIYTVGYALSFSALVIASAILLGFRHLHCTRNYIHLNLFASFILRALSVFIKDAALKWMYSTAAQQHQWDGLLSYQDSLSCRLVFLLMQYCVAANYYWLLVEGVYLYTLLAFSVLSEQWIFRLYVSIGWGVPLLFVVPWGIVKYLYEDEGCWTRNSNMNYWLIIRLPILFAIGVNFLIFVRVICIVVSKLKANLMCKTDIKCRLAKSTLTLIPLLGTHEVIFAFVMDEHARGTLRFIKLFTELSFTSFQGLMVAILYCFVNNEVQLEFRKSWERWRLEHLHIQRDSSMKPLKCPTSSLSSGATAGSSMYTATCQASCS

One may read the EC50 as the concentration at which the effect is half-maximal. For orientation: Emax means the greatest response seen or fitted, relative to the assay's reference. As to `CC[C@H](C)[C@H](NC(=O)[C@H](CCCN)NC(=O)[C@H](CC(=O)O)NC(=O)[C@H](CC(C)C)NC(=O)[C@](C)(CC(C)C)NC(=O)[C@@H](NC(=O)[C@H](CO)NC(=O)[C@H](Cc1ccncc1)NC(=O)[C@H](CC(=O)O)NC(=O)[C@H](CO)NC(=O)[C@@H](NC(=O)[C@](C)(Cc1ccccc1F)NC(=O)[C@@H](NC(=O)CNC(=O)[C@H](CCC(=O)O)NC(=O)C(C)(C)NC(=O)[C@@H](N)Cc1ccc(O)cc1)[C@@H](C)O)[C@@H](C)O)[C@@H](C)CC)C(=O)N[C@@H](C)C(=O)N[C@@H](CCC(N)=O)C(=O)NC(C)(C)C(=O)N[C@@H](CCCCNC(=O)COCCOCCNC(=O)COCCOCCNC(=O)CCCCCCCCCCCCC(=O)O)C(=O)N[C@@H](Cc1ccccc1)C(=O)N[C@H](C(=O)N[C@H](CCC(=O)O)C(=O)N[C@@](C)(Cc1ccc(O)cc1)C(=O)N[C@@H](CC(C)C)C(=O)N[C@H](C(=O)N[C@@H](CCC(=O)O)C(=O)NCC(=O)NCC(=O)N[C@@H](CCCCNC(=O)COCCOCCNC(=O)COCCOCCNC(=O)CCCCCCCCCCCCC(=O)O)C(=O)N[C@@H](CO)C(=O)N[C@@H](CO)C(=O)NCC(=O)N[C@@H](C)C(=O)N1CCC[C@H]1C(=O)N1CCC[C@H]1C(=O)N1CCC[C@H]1C(=O)N[C@@H](CO)C(N)=O)[C@@H](C)CC)[C@@H](C)CC` [Example 195], the EC50 at hGIPR (0.1% bovine casein and 1.0% human serum albumin, 37° C., read-out: hGIPR EC50, nM (SEM, n)) is 0.771 nM; at hGIPR (cAMP, incubated at 37° C., 0.1% bovine casein (no human serum albumin), read-out: hGIPR EC50, nM (SEM, n)) it was 0.0219 nM; at hGLP-1R (0.1% bovine casein and 1.0% human serum albumin, 37° C., geometric mean, read-out: hGLP-1R EC50, nM (SEM, n)), 14 nM; on hGLP-1R (cAMP, incubated at 37° C., 0.1% bovine casein (no human serum albumin), geometric mean, read-out: hGLP-1R EC50, nM (SEM, n)) it was 0.343 nM; on hGCGR (0.1% bovine casein and 1.0% human serum albumin, 37° C., geometric mean, read-out: hGCGR EC50, nM (SEM, n)), over 9950 nM; on hGCGR (cAMP, incubated at 37° C., 0.1% bovine casein (no human serum albumin), geometric mean, read-out: hGCGR EC50, nM (SEM, n)) it was over 9950 nM. For the same compound, the Emax was 87 ± 12.2% at hGIPR (HEK293, 0.1% bovine casein and 1.0% human serum albumin, 37° C., percent of maximal response to GIP(1-42)NH2, read-out: hGIPR Emax, % ± SEM); 88.5 ± 4.32% at hGIPR (HEK293, percent of maximal response to GIP(1-42)NH2, 37° C., 0.1% bovine casein, arithmetic mean, read-out: hGIPR Emax, % ± SEM).

For `CC[C@H](C)[C@H](NC(=O)[C@H](CC(C)C)NC(=O)[C@](C)(Cc1ccc(O)cc1)NC(=O)[C@H](CCCCNC(=O)COCCOCCNC(=O)COCCOCCNC(=O)CC[C@H](NC(=O)CCCCCCCCCCCCC(=O)O)C(=O)O)NC(=O)[C@@H](NC(=O)[C@H](Cc1ccccc1)NC(=O)[C@H](CCC(=O)O)NC(=O)C(C)(C)NC(=O)[C@H](CCC(N)=O)NC(=O)[C@H](C)NC(=O)[C@H](CCC(N)=O)NC(=O)[C@H](CCCN)NC(=O)[C@H](CC(=O)O)NC(=O)[C@H](CC(C)C)NC(=O)[C@](C)(CC(C)C)NC(=O)[C@@H](NC(=O)C(C)(C)NC(=O)[C@@H](NC(=O)[C@H](CC(=O)O)NC(=O)[C@H](CO)NC(=O)[C@@H](NC(=O)[C@](C)(Cc1ccccc1F)NC(=O)[C@@H](NC(=O)CNC(=O)[C@H](CCC(=O)O)NC(=O)C(C)(C)NC(=O)[C@@H](N)Cc1ccc(O)cc1)[C@@H](C)O)[C@@H](C)O)C(C)C)[C@@H](C)CC)[C@@H](C)CC)C(=O)N[C@@H](CCCCNC(=O)COCCOCCNC(=O)COCCOCCNC(=O)CC[C@H](NC(=O)CCCCCCCCCCCCC(=O)O)C(=O)O)C(=O)NCC(=O)NCC(=O)N1CCC[C@H]1C(=O)N[C@@H](CO)C(=O)N[C@@H](CO)C(=O)NCC(=O)N[C@@H](C)C(=O)N1CCC[C@H]1C(=O)N1CCC[C@H]1C(=O)N1CCC[C@H]1C(=O)N[C@@H](CO)C(N)=O` [Example 390] (H-Y[Aib]EGT[αMePhe(2-F)]TSDV[Aib]I[αMeL]LD[Orn]QAQ[Aib]EFIK([AEEA-AEEA-γGlu-C14 diacid])[αMeY]LIK([AEEA-AEEA-γGlu-C14 diacid])GGPSSGAPPPS-NH2), the maximum response (Emax) on hGIPR (HEK293, cAMP, 37° C., 0.1% bovine casein and 1.0% human serum albumin, percent of maximal response to GIP(1-42)NH2, read-out: hGIPR Emax, % ± SEM) amounted to 89.3%; at hGLP-1R (HEK293, cAMP, 37° C., 0.1% bovine casein and 1.0% human serum albumin, read-out: hGLP-1R Emax, % ± SEM), 94.6%; on hGLP-1R (HEK293, cAMP, 37° C., 0.1% bovine casein, arithmetic mean, read-out: hGLP-1R Emax, % ± SEM), 97.7%. The EC50 at hGIPR (cAMP, 37° C., 0.1% bovine casein (no human serum albumin), read-out: hGIPR EC50, nM (SEM, n)) is 0.0187 nM; on hGLP-1R (cAMP, 37° C., 0.1% bovine casein (no human serum albumin), geometric mean, read-out: hGLP-1R EC50, nM (SEM, n)) it was 0.209 nM; on hGLP-1R (cAMP, 37° C., 0.1% bovine casein and 1.0% human serum albumin, geometric mean (SEM, n), read-out: hGLP-1R EC50, nM (SEM, n)), 24.3 nM; on hGCGR (cAMP, 37° C., 0.1% bovine casein (no human serum albumin), geometric mean, read-out: hGCGR EC50, nM (SEM, n)), over 9950 nM; at hGCGR (cAMP, 37° C., 0.1% bovine casein and 1.0% human serum albumin, geometric mean (SEM, n), read-out: hGCGR EC50, nM (SEM, n)), over 9950 nM.

Consider `CC[C@H](C)[C@H](NC(=O)[C@H](CCCN)NC(=O)[C@H](CC(=O)O)NC(=O)[C@H](CC(C)C)NC(=O)[C@](C)(CC(C)C)NC(=O)[C@@H](NC(=O)C(C)(C)NC(=O)[C@H](Cc1ccncc1)NC(=O)[C@H](CC(=O)O)NC(=O)[C@H](CO)NC(=O)[C@@H](NC(=O)[C@](C)(Cc1ccccc1F)NC(=O)[C@@H](NC(=O)CNC(=O)[C@H](CCC(=O)O)NC(=O)C(C)(C)NC(=O)[C@@H](N)Cc1ccc(O)cc1)[C@@H](C)O)[C@@H](C)O)[C@@H](C)CC)C(=O)N[C@@H](C)C(=O)N[C@@H](CCC(N)=O)C(=O)NC(C)(C)C(=O)N[C@@H](CCCCNC(=O)COCCOCCNC(=O)COCCOCCNC(=O)CC[C@H](NC(=O)CCCCCCCCCOc1ccc(C(=O)O)cc1)C(=O)O)C(=O)N[C@@H](Cc1ccccc1)C(=O)N[C@H](C(=O)N[C@H](CCC(=O)O)C(=O)N[C@@](C)(Cc1ccc(O)cc1)C(=O)N[C@@H](CC(C)C)C(=O)N[C@H](C(=O)N[C@@H](CCCCNC(=O)COCCOCCNC(=O)COCCOCCNC(=O)CC[C@H](NC(=O)CCCCCCCCCOc1ccc(C(=O)O)cc1)C(=O)O)C(=O)NCC(=O)NCC(=O)N1CCC[C@H]1C(=O)N[C@@H](CO)C(=O)N[C@@H](CO)C(=O)NCC(=O)N[C@@H](C)C(=O)N1CCC[C@H]1C(=O)N1CCC[C@H]1C(=O)N1CCC[C@H]1C(=O)N[C@@H](CO)C(N)=O)[C@@H](C)CC)[C@@H](C)CC` [Example 247], for which the maximal response (Emax) on hGIPR (HEK293, read-out: hGIPR Emax, % ± SEM, 0.1% bovine casein and 1.0% human serum albumin, 37° C., percent of maximal response to GIP(1-42)NH2) amounted to 90.2%; at hGLP-1R (HEK293, read-out: hGLP-1R Emax, % ± SEM, 0.1% bovine casein and 1.0% human serum albumin, 37° C.) it was 109%. In addition, the EC50 on hGIPR (hGIPR EC50, nM (SEM, n), cAMP, incubated at 37° C., 0.1% bovine casein (no human serum albumin)) is 0.022 nM; on hGLP-1R (hGLP-1R EC50, nM (SEM, n), cAMP, incubated at 37° C., 0.1% bovine casein (no human serum albumin), geometric mean), 1 nM; on hGCGR (hGCGR EC50, nM (SEM, n), 0.1% bovine casein and 1.0% human serum albumin, 37° C., geometric mean) it was over 9950 nM; at hGCGR (hGCGR EC50, nM (SEM, n), cAMP, incubated at 37° C., 0.1% bovine casein (no human serum albumin), geometric mean), over 9950 nM.
